Experimental findings from paper PMC6270778, “Novel Cinnamic Acid Derivatives as Antioxidant and Anticancer Agents: Design, Synthesis and Modeling Studies” (Molecules, 2014) are described below.

Each structure is given as a SMILES string.

The test system of this experiment is MDA-MB-231 (breast). Put plainly: SRB cytotoxicity assay, MDA-MB-231. In kind it is cell-based. The following applies: Homo sapiens, 50% growth inhibition, 48 h exposure. As to the method: Human cancer cell lines used as targets were HT-29 (colon), A-549 (lung), OAW-42 (ovarian), MDA-MB-231 (breast), HeLa (immortal cells from cervical cancer). All cells were obtained from the American Type Culture Collection (ATCC). Cells were routinely grown as monolayer cell cultures in T-75 flasks (Costar) in an atmosphere containing 5% CO2 in air and 100% relative humidity at 37 °C and subcultured twice a week, restricting the total number of cell passages below 20. The culture medium used was Dulbecco’s modified Eagle’s medium (DMEM, Gibco, Grand Island, NY, USA) supplemented with 10% fetal bovine serum (Gibco), 2 mM glutamine (Sigma), 100 μg/mL streptomycin and 100 IU/mL penicillin.
Cell passages were carried out by detaching adherent, logarithmically growing cells after addition of 2–3 mL of a mixture of 0.05% solution of trypsin (Gibco, 1:250) in phosphate-buffered saline (PBS) with 0.02% EDTA and incubation for 3–5 min at 37 °C. For the experiments, cells were plated (100 μL containing 10,000 cells/well) in 96-well flat-bottom microplates microplates (Costar-Corning, Acton, MA 01720, USA) so that untreated cells were in exponential growth phase at the time of cytotoxicity evaluation. Cells were left for 24 h at 37 °C to resume exponential growth and stabilization and afterwards exposed to tested agents for 48 h by the addition of an equal volume (100 μL) of either complete culture medium (control wells), or twice the final drug concentrations diluted in complete culture medium (test wells). Drug cytotoxicity was measured by means of the SRB colorimetric assay estimating the survival fractions (SF) as the percent of control (untreated cells) absorbance. The SRB assay was carried out as previously described and modified by our group. In brief, culture medium was aspirated prior to fixation using a microplate-multiwash device (Tri-Continent Scientific, Inc., Grass Valley, CA, USA) and 50 μL of 10% cold (4 °C) trichloroacetic acid (TCA) were gently added to the wells. Microplates were left for 30 min at 4 °C, washed five times with deionized water and left to dry at room temperature for at least 24 h. Subsequently, 70 μL of 0.4% (w/v) sulforhodamine B (Sigma) in 1% acetic acid solution were added to each well and left at room temperature for 20 min. SRB was removed and the plates were washed five times with 1% acetic acid before air drying. Bound SRB was solubilized with 200 μL of 10 mM unbuffered Tris-base solution and plates were left on a plate shaker for at least 10 min. Absorbance was read in a 96-well plate reader at 492 nm subtracting the background measurement at 620 nm. The test optical density (OD) value was defined as the absorbance of each individual well, minus the blank value (“blank” is the mean optical density of the background control wells, n = 8). Mean values and the coefficient of variation (CV) from six replicate wells were calculated automatically. Results were expressed as the “survival fraction” (SF), as shown below.
For each tested compound a dose-effect curve was produced. Sextuplicate determinations gave a CV (Standard Deviation/mean %) of much less than 10%, resulting in standard error (SE) which was very low in all cases. The data showing inhibition of cellular growth are expressed as the fraction of cells that remains unaffected (fu) (survival fraction, SF), which is derived from the following equation: fu = ODx/ODc where ODx and ODc represent the test and the control optical density, respectively.
On the technique in general: In SRB staining, fixed cells bind dye roughly in proportion to their protein.
One may read the IC50 as the concentration at which inhibition is half-maximal. A high value points to lower potency. `O=C(O)C(=CC(Br)=Cc1ccccc1)c1ccccc1` [Compound 4i, 4-Bromo-2,5-diphenylpenta-2,4-dienoic acid] had an IC50 of 250 ± 1.2 µM.
In the case of `N#Cc1ccc(C=CC(=O)O)cc1` [Compound 1ii, 3-(4-Cyanophenyl)acrylic acid], the IC50 is > 240 µM.
In turn, `O=C(O)C=CC(Br)=Cc1ccccc1` [Compound 4ii, 4-Bromo-5-phenylpenta-2,4-dienoic acid] registered an IC50 of 47.5 ± 0.7 µM.
In the case of `N#Cc1ccc(C=C(C(=O)O)c2ccccc2)cc1` [Compound 1i, 3-(4-Cyanophenyl)-2-phenylacrylic acid], the IC50 was > 240 µM.
For `O=C(O)C=CC=Cc1ccccc1` [Compound 3ii, 5-Phenylpenta-2,4-dienoic acid], the IC50 was > 240 µM.
For `O=C(O)C(=CC=Cc1ccc([N+](=O)[O-])cc1)c1ccccc1` [Compound 2i, 5-(4-Nitrophenyl)-2-phenylpenta-2,4-dienoic acid] the value was 199 ± 1.9 µM; for `O=C(O)C(=CC=Cc1ccccc1)c1ccccc1` [Compound 3i, 2,5-Diphenylpenta-2,4-dienoic acid], > 240 µM.
In the case of `O=C(O)C=CC=Cc1ccc([N+](=O)[O-])cc1` [Compound 2ii, 5-(4-Nitrophenyl)penta-2,4-dienoic acid], the 50% inhibitory concentration (IC50) is > 240 µM.
